From US20250134813A1, “COMPOUNDS, LIPSOMES, AND DRUG CARRIERS FOR DRUG DELIVERY” (priority 2023, published 2025)
Converted amounts (≈) assume the structure as drawn.

Columns and labels:
CHL cells = assay: Evaluation of cell toxicity (CCK8 cell viability); format: cell-based
Description: CHL cells are seeded in a 96-well culture plate at a density of 4000 cells per well and incubated overnight at 37° C. in a 5% CO2 incubator. The culture medium is then replaced with 100 μL of medium containing different concentrations of ALC-0315, SM-102, and compounds prepared according to embodiments 1 and 2 of the present invention (specific concentrations are shown in FIG. 1), and cells are further incubated for 48 hours. Subsequently, 10 μL of CCK8 solution is added to each well and incubated for an additional 4 hours in the cell culture incubator. After the incubation, the absorbance at 450 nm is measured using a microplate reader, and cell viability is calculated. The IC50 values are calculated using GraphPad Prism software (version 8.01).

[1] = tested on: RBD of the wild-type Delta strain S protein; assay: Immunostimulatory efficacy of LNPs@Delta S-2P mRNA (serum antibody titers by ELISA); format: in vivo, Balb/c mice; settings: for GMT: i.m.
Fluc mRNA expression [2] = assay: In vivo expression of LNPs@Fluc mRNA via intravenous injection (organ bioluminescence, IVIS); design: species or system NIH mouse; settings: intravenous (tail vein), 10 μg FLuc mRNA per mouse, 6 hours after administration; vs MC3, ALC-0315, SM-102
Description: Furthermore, the ability of LNPs@mRNA prepared using compounds of the present invention to deliver mRNA in vivo was investigated. The inventors chose firefly luciferase as the reporter gene to label mRNA, referred to as Fluc mRNA. Following the method outlined in Example 3, LNPs@Fluc mRNA were prepared using different ionizable lipids (Compound 8, MC3, ALC-0315, or SM-102), referred to as LNP@Fluc mRNA formulation, MC3@Fluc mRNA, ALC-0315@Fluc mRNA, and SM-102@Fluc mRNA, respectively. These formulations were administered via intravenous injection (Step 2.1 of this example) and intramuscular injection (Step 2.2 of this example) to investigate the ability of LNPs@mRNA formulations prepared using compounds of the present invention to express mRNA in vivo and the distribution of expression. […]
(§1) Each formulation's mRNA concentration was adjusted to 0.05 mg/mL using PBS solution, and the osmolarity of each formulation was adjusted to isotonic. […] The heart, liver, spleen, lungs, and kidneys were rapidly dissected, and the bioluminescence intensity of each excised organ was measured using an IVIS instrument with an exposure time of 60 s. Total flux of each organ was calculated after imaging. […]

Fluc mRNA expression [3] = assay: In vivo expression of LNPs@Fluc mRNA via intramuscular injection (bioluminescence, IVIS); design: species or system BALB/c mouse; settings: 20 μg FLuc mRNA per mouse, 8 hours after administration, vs MC3, ALC-0315, SM-102
Description: Furthermore, the ability of LNPs@mRNA prepared using compounds of the present invention to deliver mRNA in vivo was investigated. The inventors chose firefly luciferase as the reporter gene to label mRNA, referred to as Fluc mRNA. Following the method outlined in Example 3, LNPs@Fluc mRNA were prepared using different ionizable lipids (Compound 8, MC3, ALC-0315, or SM-102), referred to as LNP@Fluc mRNA formulation, MC3@Fluc mRNA, ALC-0315@Fluc mRNA, and SM-102@Fluc mRNA, respectively. These formulations were administered via intravenous injection (Step 2.1 of this example) and intramuscular injection (Step 2.2 of this example) to investigate the ability of LNPs@mRNA formulations prepared using compounds of the present invention to express mRNA in vivo and the distribution of expression.
The formulations LNPs@Fluc mRNA (Compound 8), the positive control formulation MC3@Fluc mRNA, ALC-0315@Fluc mRNA, and SM-102@Fluc mRNA, abbreviated as follows, were prepared as described above.
as §1, with “0.1” for “0.05”, “The” for “The heart, liver, spleen, lungs, and kidneys were rapidly dissected, and the”, “the entire body of the live mice” for “each excised organ”

[4] = CHL cells, 48 hours incubation, CCK8, cell viability
[5] = Table 3: 1 μg each time, two administrations 14 days apart, serum 28 days after the initial immunization
[6] = Day 14, dose 0.1 μg, LNPs@Delta S-2P mRNA prepared with the lipid
[7] = Day 14, dose 1 μg, LNPs@Delta S-2P mRNA prepared with the lipid
[8] = Day 14, dose 5 μg, LNPs@Delta S-2P mRNA prepared with the lipid
[9] = Day 28, dose 0.1 μg, two administrations 14 days apart
[10] = Day 28, dose 1 μg, two administrations 14 days apart
[11] = Day 28, dose 5 μg, two administrations 14 days apart

| Structure (SMILES) | GMT [1, 5] | IC50 (CHL cells; CHL, 48 h) [µg/mL] | further results |
| --- | --- | --- | --- |
| CCCCCCCCC(CCCCCC)C(=O)OCCCCCCN(CCCCO)CCCCCCOC(=O)C(CCCCCC)CCCCCCCC (stereo not drawn) [ALC-0315, reference compound] | – | – | IC50 (CHL cells; [4]): 29.9 µg/mL (≈ 39 µM) |
| CCCCCCCCC(CCCCCC)CNC(=O)NCCCCCCN(CCCO)CCCCCCNC(=O)NCC(CCCCCC)CCCCCCCC (stereo not drawn) [Compound 7] | 341,832.9 | 126 (≈ 155 µM) | – |
| CCCCCCCCC(CCCCCC)CNC(=O)NCCCCCCN(CCCCO)CCCCCCNC(=O)NCC(CCCCCC)CCCCCCCC (stereo not drawn) [Compound 8] | 325,099.7 | 166 (≈ 202 µM) | mRNA expression capability based on the total bioluminescence emitted (Fluc mRNA expression [2]): stronger mRNA expression capability compared to the three positive control materials; Compound 8 GMT/SM-102 GMT ([1]; Day 14, dose 0.1 μg): 6.3; GMT [1, 6]: 4525.5; Compound 8 GMT/SM-102 GMT ([1]; Day 14, dose 1 μg): 14.3; GMT [1, 7]: 32254.0; Compound 8 GMT/SM-102 GMT ([1]; Day 14, dose 5 μg): 4.5; GMT [1, 8]: 81274.9; Compound 8 GMT/SM-102 GMT ([1]; Day 28, dose 0.1 μg): 3.6; GMT [1, 9]: 64508.0; Compound 8 GMT/SM-102 GMT ([1]; Day 28, dose 1 μg): 4.0; GMT [1, 10]: 325099.7; Compound 8 GMT/SM-102 GMT ([1]; Day 28, dose 5 μg): 2.5; GMT [1, 11]: 819200.0; mRNA expression capability based on the total bioluminescence emitted (Fluc mRNA expression [3]): stronger mRNA expression capability compared to the three positive control materials |
| CCCCCCCCC(CCCCCC)CNC(=O)NCCCCCCN(CCCCCO)CCCCCCNC(=O)NCC(CCCCCC)CCCCCCCC (stereo not drawn) [Compound 9] | 452,334.1 | 152 (≈ 182 µM) | – |
| CCCCCCCCC(CCCCCC)CNC(=O)NCCCCCCN(CCCCCCCO)CCCCCCNC(=O)NCC(CCCCCC)CCCCCCCC (stereo not drawn) [Compound 10] | 299,812.1 | 153 (≈ 177 µM) | – |
| CCCCCCCCC(CCCCCC)CNC(=O)NCCCCCN(CCCCO)CCCCCNC(=O)NCC(CCCCCC)CCCCCCCC (stereo not drawn) [Compound 11] | 473,681.3 | 137 (≈ 173 µM) | – |
| CCCCCCCCC(CCCCCC)CNC(=O)NCCCCCCCCCN(CCCCO)CCCCCCCCCNC(=O)NCC(CCCCCC)CCCCCCCC (stereo not drawn) [Compound 12] | 449,359.1 | 195 (≈ 215 µM) | – |
| CCCCCCCCC(CCCCCC)CNC(=O)NCCCCCCCCCCCCN(CCCCO)CCCCCCCCCCCCNC(=O)NCC(CCCCCC)CCCCCCCC (stereo not drawn) [Compound 13] | 210,944.0 | 136 (≈ 137 µM) | – |
| CCCCCCCCC(CCCCCC)CNC(=O)NCCCCCCCCCCCCN(CCCCO)CCCCCCNC(=O)NCC(CCCCCC)CCCCCCCC (stereo not drawn) [Compound 15] | 400,363.5 | 147 (≈ 162 µM) | – |
| CCCCCCC(CCCCCC)CNC(=O)NCCCCCCN(CCCCO)CCCCCCNC(=O)NCC(CCCCCC)CCCCCC [Compound 16] | 244,238.6 | 134 (≈ 174 µM) | – |
| CCCCCCCCC(CCCCCCCC)CNC(=O)NCCCCCCN(CCCCO)CCCCCCNC(=O)NCC(CCCCCCCC)CCCCCCCC [Compound 17] | 299,707.3 | 174 (≈ 198 µM) | – |
| CCCCCCCCCCCCNC(=O)NCCCCCCN(CCCCO)CCCCCCNC(=O)NCC(CCCCCC)CCCCCCCC (stereo not drawn) [Compound 21] | 208,203.5 | 119 (≈ 156 µM) | – |
| CCCCCCCCCCCOC(=O)CCCCCN(CCO)CCCCCCCC(=O)OC(CCCCCCCC)CCCCCCCC [SM-102, reference compound] | 81,274.9 | – | GMT [1, 6]: 712.7; GMT [1, 7]: 2262.7; GMT [1, 8]: 18101.9; GMT [1, 9]: 18101.9; GMT [1, 10]: 81274.9; GMT [1, 11]: 325099.7; IC50 (CHL cells; [4]): 55.9 µg/mL (≈ 78.7 µM) |
